Measured values: patent publication US20060041123A1, “Antibacterial agents” (priority 2002, published 2006)
Like-named read-outs stand apart in the source and are kept apart here.

Experiment: Antimicrobial activity assay: whole-cell MIC by broth microdilution (NCCLS M7-A6)
Type: cell-based
Protocol: Whole-cell antimicrobial activity was determined by broth microdilution using the National Committee for Clinical Laboratory Standards (NCCLS) recommended procedure, Document M7-A6, “Methods for Dilution Susceptibility Tests for Bacteria that Grow Aerobically”. The compounds were tested in serial two-fold dilutions ranging from 0.016 to 16 mcg/mL. Compounds were evaluated against a panel of Gram-positive organisms, including Staphylococcus aureus WCUH29, Streptococcus pneumoniae 1629, Streptococcus pyogenes CN 10, and Enterococcus faecalis 2. In addition, compounds were evaluated against a panel of Gram-negative strains including Haemophilus influenzae NEMC1, E. coli 7623, and Moraxella catarrhalis Ravasio. The minimum inhibitory concentration (MIC) was determined as the lowest concentration of compound that inhibited visible growth. A mirror reader was used to assist in determining the MIC endpoint.
Compounds of the present invention have MIC's ≦20 μg/ml versus all the organisms named above.

[1] = versus all the organisms named above (S. aureus WCUH29, S. pneumoniae 1629, S. pyogenes CN 10, E. faecalis 2, H. influenzae NEMC1, E. coli 7623, M. catarrhalis Ravasio), read-out: MIC

| Compound | MIC | MIC [1] |
| --- | --- | --- |
| COc1ccc2ncc(Cl)c(C(O)CN3CCC(NCc4ccc5c(n4)NC(=O)CO5)CC3)c2n1.Cl.Cl (racemic) [Example 1, 6-({1-[(Racemic)-2-(3-Chloro-6-methoxy-[1,5]naphthyridin-4-yl)-2hydroxy-ethyl]-piperidin-4-ylamino}-methyl)-4H-pyrido[3,2-b][1,4]oxazin-3-one Dihydrochloride] | ≤ 2 µg/mL | – |
| COc1ccc2ncc(F)c(CCN3CC[C@@H](NCc4cc5c(cn4)OCCO5)[C@H](O)C3)c2c1.Cl.Cl (relative stereo) [Example 117, trans-4-[(2,3-dihydro[1,4]dioxino[2,3-c]pyridin-7-ylmethyl)amino]-1-{2-[3-fluoro-6-(methoxy)-4-quinolinyl]ethyl}-3-piperidinol dihydrochloride] | – | ≤ 2 µg/mL |
| COc1ccc2ncc(F)c(CCN3CC[C@@H](NCc4ccc5c(n4)NC(=O)CO5)[C@H](O)C3)c2c1.Cl.Cl (relative stereo) [Example 133, trans-6-{[(1-{2-[3-fluoro-6-(methoxy)-4-quinolinyl]ethyl}-3-hydroxy-4-piperidinyl)amino]methyl}-2H-pyrido[3,2-b][1,4]oxazin-3(4H)-one dihydrochloride] | – | ≤ 2 µg/mL |
| COc1ccc2ncc(Cl)c(CCN3CC[C@H](NCc4ccc5c(n4)NC(=O)CO5)[C@H](O)C3)c2c1.Cl.Cl (single isomer, unassigned; enantiomer 1) [Example 5, 6-({(cis)-1-[2-(3-Chloro-6-methoxy-quinolin-4-yl)-ethyl]-3-hydroxy-piperidin-4-ylamino}-methyl)-4H-pyrido[3,2-b][1,4]oxazin-3-one Dihydrochloride Enantiomer 1] | – | ≤ 2 µg/mL |
| COc1ccc2ncc(Cl)c(CCN3CC[C@H](NCc4ccc5c(n4)NC(=O)CS5)[C@H](O)C3)c2c1.Cl.Cl (single isomer, unassigned; enantiomer 1) [Example 7, 6-({(cis)-1-[2-(3-Chloro-6-methoxy-quinolin-4-yl)-ethyl]-3-hydroxy-piperidin-4-ylamino}-methyl)-4H-pyrido[3,2-b][1,4]thiazin-3-one Dihydrochloride Enantiomer 1] | – | ≤ 2 µg/mL |
| COc1ccc2ncc(Cl)c(CCN3CC[C@H](NCc4ccc5c(n4)NC(=O)CS5)[C@H](O)C3)c2n1.Cl.Cl (single isomer, unassigned; enantiomer 1) [Example 11, 6-({(cis)-1-[2-(3-Chloro-6-methoxy-[1,5]naphthyridin-4-yl)-ethyl]-3-hydroxy-piperidin-4-ylamino}-methyl)-4H-pyrido[3,2-b][1,4]thiazin-3-one Dihydrochloride Enantiomer 1] | – | ≤ 2 µg/mL |
| COc1ccc2ncc(Cl)c(CCN3CC[C@H](NCc4cc5c(cn4)OCCO5)[C@H](O)C3)c2n1.Cl.Cl (single isomer, unassigned; enantiomer 1) [Example 29, (cis)-1-[2-(3-Chloro-6-methoxy-[1,5]naphthyridin-4-yl)-ethyl]-4-[(2,3-dihydro-[1,4]dioxino[2,3-c]pyridin-7-ylmethyl)-amino]-piperidin-3-ol Dihydrochloride Enantiomer 1] | – | ≤ 2 µg/mL |
| COc1ccc2ncc(F)c(CCN3CC[C@H](NCc4cc5c(cn4)OCCO5)[C@H](O)C3)c2c1.Cl.Cl.Cl.Cl (single isomer, unassigned; enantiomer 1) [Example 34, cis-4-[(2,3-Dihydro-[1,4]dioxino[2,3-c]pyridin-7-ylmethyl)-amino]-1-[2-(3-fluoro-6-methoxy-quinolin-4-yl)-ethyl]-piperidin-3-ol dihydrochloride dihydrochloride Enantiomer 1] | – | ≤ 2 µg/mL |
| COc1ccc2ncc(Cl)c(C(O)CN3CCC(NCc4cc5c(cn4)OCCO5)CC3)c2n1.Cl.Cl (single isomer, unassigned; enantiomer 1) [Example 35, {1-[2-(3-Chloro-6-methoxy-[1,5]naphthyridin-4-yl)-2-hydroxyethyl]-piperidin-4-yl}-(2,3-dihydro-[1,4]dioxino[2,3-c]pyridin-7-ylmethyl)-amine Dihydrochloride Enantiomer 1] | – | ≤ 2 µg/mL |
| COc1ccc2ncc(Cl)c(CCN3CC[C@H](NCc4cc5c(cn4)OCCO5)[C@H](O)C3)c2c1.Cl.Cl (single isomer, unassigned; enantiomer 1) [Example 45, cis-1-[2-(3-Chloro-6-methoxy-quinolin-4-yl)-ethyl]-4-[(2,3-dihydro-[1,4]dioxino[2,3-c]pyridin-7-ylmethyl)-amino]-piperidin-3-ol Dihydrochloride Enantiomer 1] | – | ≤ 2 µg/mL |
| COc1ccc2ncc(F)c(CCN3CC[C@H](NCc4cc5c(cn4)OCCO5)[C@H](O)C3)c2n1.Cl.Cl (single isomer, unassigned; enantiomer 1) [Example 66] | – | ≤ 2 µg/mL |
| COc1cc(F)c2ncc(F)c(CCN3CC[C@H](NCc4cnc5c(c4)NC(=O)CS5)[C@H](O)C3)c2c1.Cl.Cl (single isomer, unassigned; enantiomer 1) [Example 72] | – | ≤ 2 µg/mL |
| COc1cc(F)c2ncc(F)c(CCN3CC[C@H](NCc4ccc5c(n4)NC(=O)CS5)[C@H](O)C3)c2c1.Cl.Cl (single isomer, unassigned; enantiomer 1) [Example 73] | – | ≤ 2 µg/mL |
| COc1cc(F)c2ncc(F)c(CCN3CC[C@H](NCc4cc5c(cn4)OCCO5)[C@H](O)C3)c2c1.Cl.Cl.Cl.Cl (single isomer, unassigned; enantiomer 1) [Example 74] | – | ≤ 2 µg/mL |
| COc1ccc2ncc(F)c(CCN3CC[C@H](NCc4cnc5c(c4)NC(=O)CS5)[C@H](O)C3)c2c1.Cl.Cl (single isomer, unassigned; enantiomer 1) [Example 96] | – | ≤ 2 µg/mL |
| COc1cc(F)c2ncc(Cl)c(CCN3CC[C@H](NCc4ccc5c(n4)NC(=O)CS5)[C@H](O)C3)c2c1.Cl.Cl (single isomer, unassigned; enantiomer 1) [Example 97] | – | ≤ 2 µg/mL |
| COc1cc(F)c2ncc(Cl)c(CCN3CC[C@H](NCc4ccc5c(n4)NC(=O)CS5)[C@H](F)C3)c2c1.Cl.Cl (single isomer, unassigned; enantiomer 1) [Example 142, cis-6-{[(1-{2-[3-chloro-8-fluoro-6-(methoxy)-4-quinolinyl]ethyl}-3-fluoro-4-piperidinyl)amino]methyl}-2H-pyrido[3,2-b][1,4]thiazin-3(4H)-one dihydrochloride Enantiomer 1] | – | ≤ 2 µg/mL |
| COc1cc(F)c2ncc(F)c(CCN3CC[C@H](NCc4ccc5c(n4)NC(=O)CO5)[C@H](F)C3)c2c1.Cl.Cl (single isomer, unassigned; enantiomer 1) [Example 145, cis-6-{[(1-{2-[3,8-difluoro-6-(methoxy)-4-quinolinyl]ethyl}-3-fluoro-4-piperidinyl)amino]methyl}-2H-pyrido[3,2-b][1,4]oxazin-3(4H)-one dihydrochloride, Enantiomer 1] | – | ≤ 2 µg/mL |
| COc1cc(F)c2ncc(F)c(CCN3CC[C@H](NCc4ccc5c(c4)OCCO5)[C@H](F)C3)c2c1.Cl.Cl (single isomer, unassigned; enantiomer 1) [Example 147, cis-1-{2-[3,8-difluoro-6-(methoxy)-4-quinolinyl]ethyl}-N-(2,3-dihydro-1,4-benzodioxin-6-ylmethyl)-3-fluoro-4-piperidinamine dihydrochloride, Enantiomer 1] | – | ≤ 2 µg/mL |
